Source: the NIST ThermoML archive (doi:10.1016/j.jct.2006.05.008)

Experiment: molar heat capacity at constant pressure; wn = mass fraction of the nth substance listed
Details: Small (less than 1 g) adiabatic calorimetry

CCCCn1cc[n+](C)c1.[Br-] [1-butyl-3-methylimidazolium bromide] + O
Crystal
Details | molar heat capacity at constant pressure [J/K/mol]
257.1 K, w2 = 0.0169 | 211.52
257.12 K, w2 = 0.00482 | 207.32
257.24 K, w2 = 0.0495 | 210.08
257.33 K, w2 = 0.0051 | 208.6
257.89 K, w2 = 0.00482 | 208.45
258.27 K, w2 = 0.0051 | 209.35
258.32 K, w2 = 0.00482 | 208.23
258.68 K, w2 = 0.00482 | 208.41
258.78 K, w2 = 0.0169 | 213.4
259.16 K, w2 = 0.0169 | 213.8
259.51 K, w2 = 0.0495 | 213.48
259.61 K, w2 = 0.0051 | 210.47
259.93 K, w2 = 0.0051 | 210.82
259.98 K, w2 = 0.00482 | 210.49
260.24 K, w2 = 0.00482 | 209.97
260.65 K, w2 = 0.00482 | 210.2
260.87 K, w2 = 0.0169 | 215.76
260.94 K, w2 = 0.0051 | 211.8
261.22 K, w2 = 0.0169 | 216.33
261.77 K, w2 = 0.0495 | 217.08
262.06 K, w2 = 0.00482 | 211.93
262.28 K, w2 = 0.0051 | 212.88
262.52 K, w2 = 0.0051 | 213.06
262.95 K, w2 = 0.0169 | 218.39
262.98 K, w2 = 0.00482 | 212.09
263.28 K, w2 = 0.0169 | 218.78
263.78 K, w2 = 0.0051 | 214.35
264.01 K, w2 = 0.0495 | 220.81
264.14 K, w2 = 0.00482 | 213.82
265.04 K, w2 = 0.0169 | 221.03
265.12 K, w2 = 0.0051 | 215.36
265.24 K, w2 = 0.0051 | 215.65
265.32 K, w2 = 0.00482 | 214.05
265.34 K, w2 = 0.0169 | 221.47
266.23 K, w2 = 0.0495 | 224.56
266.24 K, w2 = 0.00482 | 216.31
266.58 K, w2 = 0.0051 | 216.86
267.13 K, w2 = 0.0169 | 223.7
267.4 K, w2 = 0.0169 | 224.14
267.66 K, w2 = 0.00482 | 216.04
267.71 K, w2 = 0.0051 | 217.69
268.43 K, w2 = 0.0495 | 228.48
269.22 K, w2 = 0.0169 | 226.58
269.45 K, w2 = 0.0169 | 226.98
270 K, w2 = 0.00482 | 218.06
270.31 K, w2 = 0.0051 | 220.13
270.61 K, w2 = 0.0495 | 232.41
271.3 K, w2 = 0.0169 | 229.49
271.51 K, w2 = 0.0169 | 229.82
272.34 K, w2 = 0.00482 | 220.16
272.91 K, w2 = 0.0051 | 222.62
273.18 K, w2 = 0.0495 | 242
273.57 K, w2 = 0.0169 | 232.77
275.36 K, w2 = 0.00482 | 223.11
275.51 K, w2 = 0.0051 | 225.17
275.62 K, w2 = 0.0169 | 235.94
276.24 K, w2 = 0.0495 | 247.28
277.2 K, w2 = 0.00482 | 225.01
278.11 K, w2 = 0.0051 | 227.74
279.23 K, w2 = 0.0169 | 242.23
279.26 K, w2 = 0.0495 | 254.65
279.32 K, w2 = 0.00482 | 227.27
279.78 K, w2 = 0.00482 | 229.54
280.71 K, w2 = 0.0051 | 230.48
281.42 K, w2 = 0.00482 | 229.46
282.24 K, w2 = 0.0495 | 262.55
283.31 K, w2 = 0.0051 | 233.23
283.5 K, w2 = 0.00482 | 230.68
284.39 K, w2 = 0.0169 | 251.43
285.17 K, w2 = 0.0495 | 271.18
285.58 K, w2 = 0.00482 | 233.7
285.91 K, w2 = 0.0051 | 236.24
287.66 K, w2 = 0.00482 | 235.67
288.14 K, w2 = 0.0495 | 280.22
288.51 K, w2 = 0.0051 | 239.25
289.53 K, w2 = 0.0169 | 262.01
289.74 K, w2 = 0.00482 | 238.04
290.97 K, w2 = 0.0495 | 290.4
291.11 K, w2 = 0.0051 | 242.54
291.83 K, w2 = 0.00482 | 240.73
293.7 K, w2 = 0.0051 | 246.11
293.74 K, w2 = 0.0495 | 300.57
293.9 K, w2 = 0.00482 | 243.2
294.65 K, w2 = 0.0169 | 274.42
295.05 K, w2 = 0.00482 | 246.53
295.98 K, w2 = 0.00482 | 245.88
296.3 K, w2 = 0.0051 | 249.8
296.46 K, w2 = 0.0495 | 310.98
298.06 K, w2 = 0.00482 | 248.83
298.89 K, w2 = 0.0051 | 253.84
299.11 K, w2 = 0.0495 | 321.36
299.76 K, w2 = 0.0169 | 289.83
300.14 K, w2 = 0.00482 | 252.27
301.49 K, w2 = 0.0051 | 258.28
301.7 K, w2 = 0.0495 | 332.6
303.76 K, w2 = 0.00482 | 260.04
304.07 K, w2 = 0.0051 | 263.07
304.21 K, w2 = 0.0495 | 344.68
306.66 K, w2 = 0.0051 | 268.79
306.66 K, w2 = 0.0495 | 358.21
309.04 K, w2 = 0.0495 | 371.9
309.23 K, w2 = 0.0051 | 274.95
311.81 K, w2 = 0.0051 | 281.91
314.38 K, w2 = 0.0051 | 289.81

101 kPa, Liquid
Details | molar heat capacity at constant pressure [J/K/mol]
258.42 K, w2 = 0.0495 | 201.89
260.51 K, w2 = 0.0495 | 202.44
262.59 K, w2 = 0.0495 | 203.15
264.68 K, w2 = 0.0495 | 203.66
266.76 K, w2 = 0.0495 | 204.28
268.85 K, w2 = 0.0495 | 204.83
271.36 K, w2 = 0.0495 | 205.69
274.29 K, w2 = 0.0495 | 206.48
277.23 K, w2 = 0.0495 | 207.26
280.16 K, w2 = 0.0495 | 208.13
283.1 K, w2 = 0.0495 | 209.06
286.03 K, w2 = 0.0495 | 209.95
288.97 K, w2 = 0.0495 | 210.91
291.91 K, w2 = 0.0495 | 211.72
294.84 K, w2 = 0.0495 | 212.72
297.78 K, w2 = 0.0495 | 213.47
300.72 K, w2 = 0.0495 | 214.41
303.65 K, w2 = 0.0495 | 215.41
306.59 K, w2 = 0.0495 | 216.44
309.53 K, w2 = 0.0495 | 217.39
312.47 K, w2 = 0.0495 | 218.35
315.41 K, w2 = 0.0495 | 219.31
321.27 K, w2 = 0.0495 | 221.21
330.56 K, w2 = 0.0495 | 224.12
333.86 K, w2 = 0.0495 | 225.96
337.13 K, w2 = 0.0495 | 227.18
340.39 K, w2 = 0.0495 | 228.38
343.64 K, w2 = 0.0495 | 229.51
346.87 K, w2 = 0.0495 | 230.63
350.08 K, w2 = 0.0495 | 232.05
352.35 K, w2 = 0.0169 | 289.81
353.26 K, w2 = 0.0495 | 232.65
355.87 K, w2 = 0.0051 | 320.97
356.41 K, w2 = 0.0495 | 233.93
357.85 K, w2 = 0.00482 | 320.3
358.14 K, w2 = 0.0169 | 293.37
358.58 K, w2 = 0.0051 | 322.63
361.53 K, w2 = 0.0495 | 236.39
363.43 K, w2 = 0.0169 | 295.6
364.71 K, w2 = 0.0495 | 237.6
367.1 K, w2 = 0.00482 | 323.63
367.89 K, w2 = 0.0495 | 238.53
